Data taken from the NIST ThermoML archive (doi:10.1016/j.jct.2004.07.025).
“And” between values parts separate entries of the source, which are not always exact repeats. Equal entries are not always repeated. Numbers after ± are expanded uncertainties.

Conditions: Liquid

CCOC(=O)c1ccccc1C(=O)OCC [diethyl phthalate]
Conditions	vapor or sublimation pressure
303.19 K, Calculated from knudsen effusion weight loss	0.000165 ± 1e-05 kPa
307.62 K, Calculated from knudsen effusion weight loss	0.00026 ± 1.6e-05 kPa
308.1 K, Calculated from knudsen effusion weight loss	0.000271 ± 1.7e-05 kPa
313.34 K, Calculated from knudsen effusion weight loss	0.000456 ± 2.8e-05 kPa
318.54 K, Calculated from knudsen effusion weight loss	0.000769 ± 4.7e-05 kPa
323.04 K, Calculated from knudsen effusion weight loss	0.00116 ± 0.0001 kPa
323.33 K, Calculated from knudsen effusion weight loss	0.001179 ± 0.00011 kPa
328.33 K, Calculated from knudsen effusion weight loss	0.001842 ± 0.00017 kPa
333.55 K, Calculated from knudsen effusion weight loss	0.002839 ± 0.00028 kPa
333.58 K, Calculated from knudsen effusion weight loss	0.002895 ± 0.00029 kPa
333.68 K, Calculated from knudsen effusion weight loss	0.00286 ± 0.00029 kPa
335.05 K, Closed cell (Static) method	0.0037 ± 0.00019 kPa
335.07 K, Closed cell (Static) method	0.0037 ± 0.00019 kPa
337.65 K, Calculated from knudsen effusion weight loss	0.003873 ± 0.0004 kPa
338.68 K, Calculated from knudsen effusion weight loss	0.004379 ± 0.00046 kPa
343.7 K, Calculated from knudsen effusion weight loss	0.006569 ± 0.00073 kPa
344.41 K, Closed cell (Static) method	0.0076 ± 0.00033 kPa
344.43 K, Closed cell (Static) method	0.0077 ± 0.00034 kPa
354.01 K, Closed cell (Static) method	0.0158 ± 0.0006 kPa
354.03 K, Closed cell (Static) method	0.0159 ± 0.0006 kPa
363.15 K, Closed cell (Static) method	0.0304 ± 0.0009 kPa
363.16 K, Closed cell (Static) method	0.0305 ± 0.0009 kPa
365.75 K, Closed cell (Static) method	0.036 ± 0.0011 kPa and 0.0359 ± 0.0011 kPa
365.77 K, Closed cell (Static) method	0.0363 ± 0.0011 kPa
375.29 K, Closed cell (Static) method	0.0671 ± 0.0018 kPa
375.31 K, Closed cell (Static) method	0.0671 ± 0.0018 kPa
384.96 K, Closed cell (Static) method	0.121 ± 0.003 kPa
394.42 K, Closed cell (Static) method	0.21 ± 0.005 kPa and 0.209 ± 0.005 kPa and 0.207 ± 0.005 kPa
394.43 K, Closed cell (Static) method	0.208 ± 0.005 kPa
394.47 K, Closed cell (Static) method	0.207 ± 0.005 kPa
403.73 K, Closed cell (Static) method	0.346 ± 0.008 kPa
403.77 K, Closed cell (Static) method	0.347 ± 0.008 kPa
404.25 K, Closed cell (Static) method	0.352 ± 0.008 kPa
404.27 K, Closed cell (Static) method	0.352 ± 0.008 kPa
413.4 K, Closed cell (Static) method	0.568 ± 0.012 kPa
413.43 K, Closed cell (Static) method	0.569 ± 0.012 kPa
414.26 K, Closed cell (Static) method	0.585 ± 0.013 kPa
414.27 K, Closed cell (Static) method	0.586 ± 0.013 kPa
424.06 K, Closed cell (Static) method	0.94 ± 0.02 kPa
424.09 K, Closed cell (Static) method	0.94 ± 0.02 kPa
479.25 K, Ebulliometric method (Recirculating still)	8.318 ± 0.012 kPa
487.77 K, Ebulliometric method (Recirculating still)	11.06 ± 0.014 kPa
494.93 K, Ebulliometric method (Recirculating still)	13.9 ± 0.017 kPa
501 K, Ebulliometric method (Recirculating still)	16.77 ± 0.019 kPa
507.32 K, Ebulliometric method (Recirculating still)	20.26 ± 0.023 kPa
513.93 K, Ebulliometric method (Recirculating still)	24.53 ± 0.027 kPa
520.32 K, Ebulliometric method (Recirculating still)	29.35 ± 0.032 kPa
